Test results as given in patent US11236129B2, “IL-17A binding peptides and medical uses thereof” (Dompe' Farmaceutici S.P.A., priority 2018, dated 2022).
Read-outs that look alike come from different tables or passages of the source. Residues, ends and D or L forms follow the SMILES beside them.

Columns and labels:
[1] = format: physicochemical; details: pH 7.8
Description: Each lyophilized peptide was weighed in an amber vial. A calculated volume of phosphate buffered solution at pH 7.8 was added in order to directly obtain 10 mM Stock Solutions. The recovered suspensions were stirred for 30 minutes by orbital shaker incubator at 37° C. Subsequent dilutions were performed to obtain the more diluted stock solutions for the less soluble compounds.
In order to evaluate the stability and the solubility, all the stock solutions were stored at 25° C. The title was evaluated by UHPLC-MS analysis in comparison with the standard solutions, at 3 time points: T0, 3 days, 1 week.
The chromatographic profile was evaluated for the quantitative assay while the MS spectra were detected as support in the stability studies.
Each peptide was weighed and directly diluted at 100 μM with the phosphate buffer at pH 7.8. The solutions were stirred for 5 minutes by vortex and heated at 37° C. for 20 minutes. The obtained standard solution was stored at 25° C. in the dark under controlled temperature.
A portion of the stock solutions was collected in an amber vial and diluted to 100 μM by phosphate buffer at pH 7.8 (dilution factor, 1:100).
Reversed-phase UHPLC was performed operating at a flow rate of 0.3 ml/min with a Luna Omega Polar C18 column ([…] 1.6 μm, 2.1×100 mm). Solvent A was 0.5% Formic Acid in water and solvent B was 0.5% Formic Acid in acetonitrile. First, samples were loaded onto the column and washed isocratically at 10% B for 3 min. Then, a gradient of 10-95% B was run over 22 min, held at 95% for 2 min, and then decreased to 10% over 1 min and held, for the pressure stabilization, for 5 min. UV Absorption was monitored by DAD (220-400 nm). ESI-MS ion trap was used for the monitoring of TIC.

[2] = Isoelectric point, log D and log P (SiriusT3); format: physicochemical; details: for IP (isoelectric point): 25±1° C., 0.15 M KCl
Description: The main physicochemical properties (Isoelectric point (IP), log D (7.4) and log P) of the peptides of Table 8 below were determined by using the SiriusT3 apparatus (Sirius Analytical Instruments Ltd., East Sussex, UK) equipped with an Ag/AgCl double junction reference pH electrode, a Sirius D-PAS spectrometer and a turbidity sensing device. […] An overhead stirrer was used and a temperature probe (Peltier controller) monitored the temperature during the course of the titration. The titration experiments were conducted in 0.15 M KCl Ionic Strength Adjusted solution (ISA water) under a nitrogen atmosphere at a temperature of 25±1° C. All tests were performed using standardized 0.5 M KOH and 0.5 M HCl as titration reagents, for the partition coefficient tests a saturated Octanol in ISA water (5% of ISA water) was used as partition solvent. The pKas were determined by potentiometric method by pH-metric titration. The powder (around 0.5 mg) was dissolved in 1.5 ml of ISA water and the titration was performed in triplicate in the pH range 2.0−12.0.

[3] = target: IL-17RA/IL17RC dimerization induced by IL-17A (Homo sapiens, UniProt Q16552); assay: IL-17RA/IL17RC dimerization assay in response to IL-17A (PathHunter Cytokine Receptor Assay); format: cell-based; details: IL-17A at EC80; read-out: IC50 in IL-17RA/IL7RC dimerization assay
Chain of IL-17RA/IL17RC dimerization induced by IL-17A (Q16552 24-155): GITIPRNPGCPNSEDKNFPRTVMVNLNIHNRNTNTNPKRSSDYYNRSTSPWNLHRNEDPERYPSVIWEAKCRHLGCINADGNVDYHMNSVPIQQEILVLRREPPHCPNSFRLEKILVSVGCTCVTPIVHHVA
Method in brief: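 PathHunter cells with IL-17RA and IL-17RC tagged for β-galactosidase complementation were preincubated 60 min with peptide (1% vehicle). IL-17A was then added at EC80 for 6–16 h at 37 °C, and chemiluminescence was read. Inhibition is relative to the EC80 and vehicle controls.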

[4] = octanol/ISA water, read-out: logP
[5] = pH 7.4, pH 7.4, octanol/ISA water, read-out: Log D (7.4)

SMILES | solubility [1] [µM] | IP (isoelectric point) [2] | logP [2, 4] | IC50 [3] [nM] | logD [2, 5] | logP ([2]; logP) | logD ([2]; pH 7.4, Log D (7.4))
CC[C@H](C)[C@H](NC(=O)[C@H](Cc1c[nH]c2ccccc12)NC(=O)[C@H](CCC(=O)O)NC(=O)[C@H](Cc1ccc(O)cc1)NC(=O)[C@H](CC(C)C)NC(=O)[C@H](CC(=O)O)NC(=O)[C@H](C)NC(=O)[C@@H]1CCCN1C(=O)[C@@H](NC(=O)[C@@H](NC(=O)[C@@H](NC(=O)[C@H](CCSC)NC(=O)[C@@H](NC(C)=O)C(C)C)C(C)C)[C@@H](C)O)[C@@H](C)CC)C(=O)N[C@@H](CCC(=O)O)C(=O)N[C@@H](CCC(=O)O)C(=O)N[C@@H](CCCNC(=N)N)C(=O)N[C@@H](CCCNC(=N)N)C(=O)N[C@@H](CCCNC(=N)N)C(=O)N[C@@H](CCCNC(=N)N)C(=O)N[C@@H](CCCNC(=N)N)C(=O)N[C@@H](CCCNC(=N)N)C(N)=O [SEQ ID NO: 19] (Ac-VMVTIPADLYEWIEERRRRRR-NH2) | ≥ 100 | 12.49 | – | < 1000 | -3.94 | – | –
CC[C@H](C)[C@H](NC(=O)[C@H](Cc1c[nH]c2ccccc12)NC(=O)[C@H](CCC(=O)O)NC(=O)[C@H](Cc1ccc(O)cc1)NC(=O)[C@H](CC(C)C)NC(=O)[C@H](CC(=O)O)NC(=O)[C@H](C)NC(=O)[C@@H]1CCCN1C(=O)[C@@H](NC(=O)[C@@H](NC(=O)[C@@H](NC(=O)[C@H](CCSC)NC(=O)[C@@H](NC(C)=O)C(C)C)C(C)C)[C@@H](C)O)[C@@H](C)CC)C(=O)N[C@@H](CCC(=O)O)C(=O)N[C@@H](CCC(=O)O)C(=O)NCC(=O)NCC(=O)N[C@H](C(=O)N[C@@H](Cc1c[nH]c2ccccc12)C(=O)N[C@@H](Cc1c[nH]c2ccccc12)C(=O)N[C@H](C(=O)N[C@@H](CCC(=O)O)C(=O)N[C@@H](Cc1c[nH]c2ccccc12)C(=O)N[C@@H](CO)C(=O)N[C@@H](CCC(N)=O)C(N)=O)[C@@H](C)O)[C@@H](C)O [SEQ ID NO: 22] (Ac-VMVTIPADLYEWIEEGGTWWTEWSQ-NH2) | > 10000 | 4.26 | 0.4 | < 1000 | -3.18 | – | –
CC[C@H](C)[C@H](NC(=O)[C@H](Cc1c[nH]c2ccccc12)NC(=O)[C@H](CCC(=O)O)NC(=O)[C@H](Cc1ccc(O)cc1)NC(=O)[C@H](CC(C)C)NC(=O)[C@H](CC(=O)O)NC(=O)[C@H](C)NC(=O)[C@@H]1CCCN1C(=O)[C@@H](NC(=O)[C@@H](NC(=O)[C@@H](NC(=O)[C@H](CCSC)NC(=O)[C@@H](NC(C)=O)C(C)C)C(C)C)[C@@H](C)O)[C@@H](C)CC)C(=O)N[C@@H](CCC(=O)O)C(=O)N[C@@H](CCC(=O)O)C(=O)N[C@H](C(=O)N1CCC[C@H]1C(=O)NCC(=O)N[C@@H](C)C(=O)NCC(N)=O)C(C)C [SEQ ID NO: 27] (Ac-VMVTIPADLYEWIEEVPGAG-NH2) | > 10000 | 5.14 | 0.69 | < 1000 | 0.148 | – | –
CC[C@H](C)[C@H](NC(=O)[C@H](Cc1c[nH]c2ccccc12)NC(=O)[C@H](CCC(=O)O)NC(=O)[C@H](Cc1ccc(O)cc1)NC(=O)[C@H](CC(C)C)NC(=O)[C@H](CC(=O)O)NC(=O)[C@H](C)NC(=O)[C@@H]1CCCN1C(=O)[C@@H](NC(=O)[C@@H](NC(=O)[C@@H](NC(=O)[C@H](CCSC)NC(=O)[C@@H](NC(C)=O)C(C)C)C(C)C)[C@@H](C)O)[C@@H](C)CC)C(=O)N[C@@H](CCC(=O)O)C(=O)N[C@@H](CCC(=O)O)C(=O)N[C@H](C(=O)N1CCC[C@H]1C(=O)NCC(=O)N[C@@H](CCCCN)C(=O)NCC(N)=O)C(C)C [SEQ ID NO: 26] (Ac-VMVTIPADLYEWIEEVPGKG-NH2) | > 10000 | 8.13 | 0.69 | < 1000 | 0.148 | – | –
CC[C@H](C)[C@H](NC(=O)[C@H](Cc1c[nH]c2ccccc12)NC(=O)[C@H](CCC(=O)O)NC(=O)[C@H](Cc1ccc(O)cc1)NC(=O)[C@H](CC(C)C)NC(=O)[C@H](CC(=O)O)NC(=O)[C@H](C)NC(=O)[C@@H]1CCCN1C(=O)[C@@H](NC(=O)[C@@H](NC(=O)[C@@H](NC(=O)[C@H](CCSC)NC(=O)[C@@H](NC(C)=O)C(C)C)C(C)C)[C@@H](C)O)[C@@H](C)CC)C(=O)N[C@@H](CCC(=O)O)C(=O)N[C@@H](CCC(=O)O)C(=O)N[C@H](C(=O)N1CCC[C@H]1C(=O)NCC(=O)N[C@@H](Cc1c[nH]c2ccccc12)C(=O)NCC(N)=O)C(C)C [SEQ ID NO: 24] (Ac-VMVTIPADLYEWIEEVPGWG-NH2) | < 50 | 5.14 | 2.45 | < 1000 | 2.15 | – | –

Results, then the molecule that gave them:

solubility [1] [µM] | IP (isoelectric point) [2] | logP [2, 4] | IC50 [3] [nM] | logD [2, 5] | logP ([2]; logP) | logD ([2]; pH 7.4, Log D (7.4)) | SMILES
< 50 | 8.99 | -4.76 | < 500 | – | – | – | CC[C@H](C)[C@H](NC(=O)[C@@H](NC(=O)[C@H](Cc1ccccc1)NC(=O)[C@H](Cc1c[nH]cn1)NC(=O)[C@@H](NC(C)=O)C(C)C)[C@@H](C)O)C(=O)N1CCC[C@H]1C(=O)N[C@@H](C)C(=O)N[C@@H](CC(=O)O)C(=O)N[C@@H](CC(C)C)C(=O)N[C@@H](Cc1c[nH]c2ccccc12)C(=O)N[C@@H](CCC(=O)O)C(=O)N[C@@H](Cc1c[nH]c2ccccc12)C(=O)N[C@H](C(=O)N[C@@H](CCCNC(=N)N)C(=O)N[C@@H](CCCNC(=N)N)C(N)=O)C(C)C [SEQ ID NO: 112] (Ac-VHFTIPADLWEWVRR-NH2)
≥ 10 | 3.90 | 1.33 | < 400 | -1.87 | – | – | CC[C@H](C)[C@H](NC(C)=O)C(=O)N[C@@H](CCSC)C(=O)N[C@H](C(=O)N[C@H](C(=O)N[C@H](C(=O)N1CCC[C@H]1C(=O)N[C@@H](C)C(=O)N[C@@H](CC(=O)O)C(=O)N[C@@H](CC(C)C)C(=O)N[C@@H](Cc1c[nH]c2ccccc12)C(=O)N[C@@H](CC(=O)O)C(=O)N[C@@H](Cc1c[nH]c2ccccc12)C(=O)N[C@H](C(=O)N[C@@H](CC(N)=O)C(=O)N[C@@H](CCCCN)C(N)=O)[C@@H](C)CC)[C@@H](C)CC)[C@@H](C)O)C(C)C [SEQ ID NO: 3] (Ac-IMVTIPADLWDWINK-NH2)
≥ 20 | 3.90 | 1.88 | < 100 | -1.32 | – | – | CC[C@H](C)[C@H](NC(=O)[C@H](Cc1c[nH]c2ccccc12)NC(=O)[C@H](CC(=O)O)NC(=O)[C@H](Cc1c[nH]c2ccccc12)NC(=O)[C@H](CC(C)C)NC(=O)[C@H](CC(=O)O)NC(=O)[C@H](C)NC(=O)[C@@H]1CCCN1C(=O)[C@@H](NC(=O)[C@@H](NC(=O)[C@@H](NC(=O)[C@H](CCSC)NC(=O)[C@@H](NC(C)=O)C(C)C)C(C)C)[C@@H](C)O)[C@@H](C)CC)C(=O)N[C@@H](CC(N)=O)C(=O)N[C@@H](CCCCN)C(N)=O [SEQ ID NO: 4] (Ac-VMVTIPADLWDWINK-NH2)
≥ 50 | 3.51 | – | < 400 | – | 1.66 | 1.88 | CC[C@H](C)[C@H](NC(C)=O)C(=O)N[C@@H](Cc1c[nH]cn1)C(=O)N[C@H](C(=O)N[C@H](C(=O)N[C@H](C(=O)N1CCC[C@H]1C(=O)N[C@@H](C)C(=O)N[C@@H](CC(=O)O)C(=O)N[C@@H](CC(C)C)C(=O)N[C@@H](Cc1c[nH]c2ccccc12)C(=O)N[C@@H](CC(=O)O)C(=O)N[C@@H](Cc1c[nH]c2ccccc12)C(=O)N[C@H](C(=O)N[C@@H](CCC(=O)O)C(=O)N[C@@H](CCC(=O)O)C(N)=O)C(C)C)[C@@H](C)CC)[C@@H](C)O)C(C)C [SEQ ID NO: 15] (Ac-IHVTIPADLWDWVEE-NH2)
> 10000 | 4.21 | -4.93 | < 200 | -3.5 | – | – | CC[C@H](C)[C@H](NC(=O)[C@H](Cc1c[nH]c2ccccc12)NC(=O)[C@H](CCC(=O)O)NC(=O)[C@H](Cc1ccc(O)cc1)NC(=O)[C@H](CC(C)C)NC(=O)[C@H](CC(=O)O)NC(=O)[C@H](C)NC(=O)[C@@H]1CCCN1C(=O)[C@@H](NC(=O)[C@@H](NC(=O)[C@@H](NC(=O)[C@H](CCSC)NC(=O)[C@@H](NC(C)=O)C(C)C)C(C)C)[C@@H](C)O)[C@@H](C)CC)C(=O)N[C@@H](CCC(=O)O)C(=O)N[C@@H](CCC(=O)O)C(=O)N[C@H](C(=O)N1CCC[C@H]1C(=O)NCC(=O)N[C@@H](CC(=O)O)C(=O)NCC(N)=O)C(C)C [SEQ ID NO: 40] (Ac-VMVTIPADLYEWIEEVPGDG-NH2)
